Key:
mGluR5 receptor (human) = target: T1, mGluR5 receptor (human) (Homo sapiens, UniProt P41594); experiment: Functional Ca2+ influx assay in CHO-hmGluR5 cells (DHPG 10 μM, FLIPR); assay type: cell-based
T1 construct: host or cells: CHO
Description: V. Functional Ca^2+ Influx Assay
20,000 CHO-hmGluR5 cells/well (Euroscreen, Gosselies, Belgium) are pipetted into 96-well plates (BD Biosciences, Heidelberg, Germany, Ref. 356640, clear bottom, 96-well, poly-D-lysine) and incubated overnight in HBSS buffer (Gibco 14025-050) with the following additions: 10% FCS (GIBCO, 10270-106) and doxycycline (BD Biosciences Clontech 631311 600 ng/ml).
For the functional study the cells were charged with 2 μM of Fluo-4 and 0.01% by vol. pluronic F127 (Molecular Probes Europe BV, Leiden, The Netherlands) in HBSS buffer (Hank's buffered saline solution, Gibco Invitrogen GmbH, Karlsruhe, Germany) with probenicide (Sigma P8761, […]) for 30 min. at 37° C.
The cells are then washed 3 times with washing buffer (HBSS buffer, Gibco No. 14025-050), with probenicide (Sigma P8761, 0.69 mg/ml) and then taken up with the same buffer ad 100 μl. After 15 min. the plates for determining the Ca^2+ measurements in the presence of DHPG ((S)-3,5-dihydroxyphenylglycine, Tocris Biotrend Chemikalien GmbH, Cologne, Germany, final DHPG concentration: 10 μM) and also in the presence or absence of test substances are transferred into a fluorometric imaging plate reader (FLIPR, Molecular Devices, Sunnyvale, Calif.).
The Ca^2+-dependent fluorescence is measured before and after the addition of test substances. The quantification occurs through the measurement of the highest fluorescence intensity over time. After the fluorescence base line has been recorded for 10 sec. 50 μl of test substance solution (different test substance concentrations in HBSS buffer with 1% DMSO and 0.02% Tween 20, Sigma) are added and the fluorescence signal is measured for 6 min. 50 μl of DHPG solution ((S)-3,5-dihydroxyphenylglycine, Tocris Biotrend Chemikalien GmbH, Cologne, Germany, final DHPG concentration: 10 μM) are then added and the influx of Ca^2+ is measured simultaneously for 60 sec. The final DMSO concentration amounts to 0.25% and the final Tween 20 content amounts to 0.005%. The data are analysed with Microsoft Excel and GraphPad Prism. The dose effect curves are calculated with non-linear regression and IC50 values determined. Each data point is determined 3 times and IC50 values are averaged from a minimum of 2 independent measurements. Ki values are calculated according to the following formula:
Ki=IC50/(1+(AGconc./EC50)).
AGconc.=10 μM; EC50 corresponds to the DHPG concentration necessary for the half-maximum influx of Ca^2+.

Formalin test on rats = assay type: in vivo, rat
Description: IIa. Formalin Test on Rats:
The formalin test (Dubuisson, D. and Dennis, S. G., 1977, Pain, 4, 161-174) represents a model for acute as well as chronic pain. By a single formalin injection into the dorsal side of a rear paw a biphase nociceptive reaction is inducted in free-moving test animals that is detected by observation of three clearly distinguishable behavior patterns. The reaction is two-phase: phase I=immediate reaction (duration up to 10 min.; paw shaking, licking), phase 2=late reaction (after a resting phase; likewise paw shaking, licking; duration up to 60 min.). The first phase reflects a direct stimulation of the peripheral nocisensors with high spinal nociceptive input or glutamate release (acute pain phase); the second phase reflects a spinal and peripheral hypersensitisation (chronic pain phase). The chronic pain component (phase 2) was evaluated in the studies presented here.
Formalin is applied subcutaneously in a volume of 50 μl and a concentration of 5% into the dorsal side of the right rear paw of each animal. […] The specific changes in behavior such as lifting and shaking of the paw, shifting weight of the animal as well as biting and licking reactions are observed and recorded in the observation period of 21 to 27 min. after the formalin injection. […]

mGluR5 receptor = target: T2, mGluR5 receptor (Sus scrofa, UniProt I3LUI7); experiment: [3H]-MPEP mGluR5 receptor binding assay (pig brain homogenate); conditions: 5 nM [3H]-MPEP, read-out: IC50 mGluR5 Receptor (pig) [^3H]-MPEP Bond
T2 construct: 450 μg of protein from brain homogenate with 5 nM ^3[H]-MPEP; from tissue; host or cells: pig brain halves without medulla, cerebellum and pons
T2 sequence (I3LUI7 19-1212): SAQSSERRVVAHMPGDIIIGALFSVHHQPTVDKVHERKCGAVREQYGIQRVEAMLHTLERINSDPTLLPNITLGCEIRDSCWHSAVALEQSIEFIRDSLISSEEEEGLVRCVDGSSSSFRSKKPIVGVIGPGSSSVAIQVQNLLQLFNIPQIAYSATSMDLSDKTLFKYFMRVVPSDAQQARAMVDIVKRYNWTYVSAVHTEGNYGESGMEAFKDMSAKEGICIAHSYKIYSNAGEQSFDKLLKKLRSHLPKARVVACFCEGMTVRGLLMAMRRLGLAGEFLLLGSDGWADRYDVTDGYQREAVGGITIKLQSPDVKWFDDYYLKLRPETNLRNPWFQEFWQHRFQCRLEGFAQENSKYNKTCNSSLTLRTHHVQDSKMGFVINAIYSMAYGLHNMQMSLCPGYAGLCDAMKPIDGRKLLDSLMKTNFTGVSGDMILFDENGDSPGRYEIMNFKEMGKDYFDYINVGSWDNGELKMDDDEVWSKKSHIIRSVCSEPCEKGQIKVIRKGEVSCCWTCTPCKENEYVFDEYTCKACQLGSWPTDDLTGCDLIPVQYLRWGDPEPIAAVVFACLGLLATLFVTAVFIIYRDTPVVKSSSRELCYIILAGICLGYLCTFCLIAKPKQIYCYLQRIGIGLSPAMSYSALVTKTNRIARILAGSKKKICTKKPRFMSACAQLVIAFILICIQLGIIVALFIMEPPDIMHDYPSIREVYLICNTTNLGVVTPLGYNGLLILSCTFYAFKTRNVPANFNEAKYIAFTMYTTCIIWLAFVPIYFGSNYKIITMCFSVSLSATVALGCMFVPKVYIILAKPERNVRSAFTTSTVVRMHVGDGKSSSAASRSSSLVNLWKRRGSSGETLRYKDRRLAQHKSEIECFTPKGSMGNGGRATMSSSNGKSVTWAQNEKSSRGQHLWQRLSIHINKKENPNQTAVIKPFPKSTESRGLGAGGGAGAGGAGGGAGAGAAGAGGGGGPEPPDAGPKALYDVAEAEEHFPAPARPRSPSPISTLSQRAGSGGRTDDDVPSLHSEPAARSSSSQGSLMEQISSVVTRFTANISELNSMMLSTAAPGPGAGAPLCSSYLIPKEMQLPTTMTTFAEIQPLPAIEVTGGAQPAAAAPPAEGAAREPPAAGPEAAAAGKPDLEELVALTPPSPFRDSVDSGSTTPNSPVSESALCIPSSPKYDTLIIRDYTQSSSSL
In short: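 Compounds at 10 μM competed with 5 nM [3H]-MPEP for binding to pig brain membranes (450 μg protein) for 60 min at room temperature in pH 8.0 Hepes buffer. Bound radioactivity was collected on glass-fibre filters and read by β-counting, with 10 μM unlabelled MPEP giving non-specific binding.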

T1 sequence (P41594 21-1212): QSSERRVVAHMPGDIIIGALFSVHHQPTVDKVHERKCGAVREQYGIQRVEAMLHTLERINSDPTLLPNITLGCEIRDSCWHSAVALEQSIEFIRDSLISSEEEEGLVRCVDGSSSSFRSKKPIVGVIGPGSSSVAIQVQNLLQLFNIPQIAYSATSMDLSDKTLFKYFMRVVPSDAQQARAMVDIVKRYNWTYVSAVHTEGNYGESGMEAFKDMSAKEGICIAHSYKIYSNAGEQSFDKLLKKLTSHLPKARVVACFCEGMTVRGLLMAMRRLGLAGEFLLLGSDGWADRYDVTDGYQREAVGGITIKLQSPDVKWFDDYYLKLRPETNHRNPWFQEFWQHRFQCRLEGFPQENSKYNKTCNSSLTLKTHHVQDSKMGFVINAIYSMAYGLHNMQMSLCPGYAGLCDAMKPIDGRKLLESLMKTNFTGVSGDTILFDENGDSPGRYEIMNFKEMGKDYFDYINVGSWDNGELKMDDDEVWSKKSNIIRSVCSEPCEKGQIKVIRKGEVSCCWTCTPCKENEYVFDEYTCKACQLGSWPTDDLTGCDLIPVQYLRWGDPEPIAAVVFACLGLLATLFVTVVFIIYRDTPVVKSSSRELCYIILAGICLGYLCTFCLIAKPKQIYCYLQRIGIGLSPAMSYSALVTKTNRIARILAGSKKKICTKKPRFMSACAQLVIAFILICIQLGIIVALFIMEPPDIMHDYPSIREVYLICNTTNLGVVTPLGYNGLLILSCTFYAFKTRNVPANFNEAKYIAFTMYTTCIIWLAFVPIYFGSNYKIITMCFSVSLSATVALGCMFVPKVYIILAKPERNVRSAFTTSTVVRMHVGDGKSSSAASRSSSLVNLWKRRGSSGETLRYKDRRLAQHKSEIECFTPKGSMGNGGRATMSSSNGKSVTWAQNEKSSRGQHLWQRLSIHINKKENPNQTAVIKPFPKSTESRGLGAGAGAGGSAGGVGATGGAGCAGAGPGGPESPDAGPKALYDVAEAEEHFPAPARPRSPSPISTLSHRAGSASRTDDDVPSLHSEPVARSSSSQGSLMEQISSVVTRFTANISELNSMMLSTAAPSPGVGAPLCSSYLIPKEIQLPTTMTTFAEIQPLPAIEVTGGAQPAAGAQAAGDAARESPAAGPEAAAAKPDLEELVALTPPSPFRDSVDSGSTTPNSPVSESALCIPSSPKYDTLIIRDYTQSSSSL

CC(C)(C)Nc1ncnc2ccc(-c3ccc(F)c(CN(C(=O)CC#N)C4CC4)c3)cc12 [Example 201, N-[5-(4-tert-butylamino-quinazolin-6-yl)-2-fluoro-benzyl]-2-cyano-N-cyclopropyl-acetamide]
Ki (mGluR5 receptor (human)): 2.7 nM
Formalin Test (Formalin test on rats; 2.15 mg/kg i.v.): 46% effect at
IC50 (mGluR5 receptor): 30 nM

CC(=O)N(Cc1cc(-c2ccc3ncnc(NC4CC4)c3c2)ccc1F)C1CC1 [Example 260, N-cyclopropyl-N-[5-(4-cyclopropylamino-quinazolin-6-yl)-2-fluoro-benzyl]-acetamide]
Ki (mGluR5 receptor (human)): 0.8 nM
Formalin Test (Formalin test on rats; 10 mg/kg i.v.): 80% effect at
IC50 (mGluR5 receptor): 30 nM

Source: US20090069320A1, “Substituted 4-Amino-Quinazoline Compounds with Metabotropic Glutamate Receptor Regulating Activity and Uses Thereof” (Gruenenthal GmbH, priority 2006, published 2009)
